Measured values reported in PubChem BioAssay (NCI).
“And” between values parts separate entries of the source, which are not always exact repeats. Equal values may be shown once.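 Grown in 96-well plates, cells were treated for 48 hours with each compound at five concentrations. Insufficient inhibition: endpoint recorded as highest concentration tested. At the GI50, growth is halved. TGI is the concentration that stops growth completely.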

How the values were obtained:
Test in all cases: inhibition of tumour cell growth, NCI panel, 48 h
HCT-15 colon = tested on: HCT-15 colon
HL-60(TB) leukemia = tested on: HL-60(TB) leukemia
MCF7 breast = tested on: MCF7 breast
MDA-MB-435 = tested on: MDA-MB-435
NCI-H226 lung = tested on: NCI-H226 lung
OVCAR-3 ovarian = tested on: OVCAR-3 ovarian
RPMI-8226 leukemia = tested on: RPMI-8226 leukemia
RXF 393 renal = tested on: RXF 393 renal
SF-539 CNS = tested on: SF-539 CNS
SK-MEL-2 melanoma = tested on: SK-MEL-2 melanoma

Structure (SMILES) | TGI (HCT-15 colon) | TGI (HL-60(TB) leukemia) | TGI (MCF7 breast) | TGI (MDA-MB-435) | TGI (NCI-H226 lung) | TGI (OVCAR-3 ovarian) | TGI (RPMI-8226 leukemia) | TGI (RXF 393 renal) | TGI (SF-539 CNS) | TGI (SK-MEL-2 melanoma) | GI50 (HL-60(TB) leukemia) | GI50 (NCI-H226 lung) | GI50 (SF-539 CNS) | GI50 (SK-MEL-2 melanoma)
CC(C)Oc1c(-c2ccc(F)cc2)c(O)c2c3c1oc(=O)n3C=CC2C (stereo not drawn) | 29.7 µM | 31 µM | 24.3 µM | 52.9 µM | 26.9 µM | 27.9 µM | 34.7 µM | 27.3 µM | 26.4 µM | 53.3 µM | – | – | – | –
C=C1C[C@H](O)[C@H](Br)C(C)(C)C12CCC(C)(Cl)C(Br)C2 (stereo partly drawn) | 19.3 µM | 13.4 µM | 11.2 µM | 11.7 µM | 12.7 µM | 15.7 µM | 3.76 µM | 10.6 µM | 42.2 µM | 6.55 µM | – | – | – | –
COc1ccc2nc3cccc([N+](=O)[O-])c3c(NCCCO)c2c1 | – | – | 0.0134 µM and 0.0389 µM | 0.0017 µM and 0.0128 µM | 0.0803 µM and 0.0618 µM | – | 0.219 µM | 0.00255 µM | 0.00518 µM and 0.0418 µM | 0.00376 µM | 0.00233 µM | 0.0181 µM and 0.0138 µM | 0.00141 µM and 0.0132 µM | 0.00162 µM
OC1CSc2nc3ccccc3n2C1 (stereo not drawn) | > 100 µM | > 100 µM | > 100 µM | > 100 µM | > 100 µM | > 100 µM | > 100 µM | > 100 µM | > 100 µM | – | – | – | – | –
CCOC1CC(C)N(C(=O)c2ccccc2)O1 (stereo not drawn) | – | > 100 µM | > 100 µM | > 100 µM | > 100 µM | > 100 µM | – | > 100 µM | > 100 µM | – | – | – | – | –
c1ccc(CSC2(SCc3ccccc3)CCCCC2)cc1 | > 10 µM | > 10 µM | > 10 µM | – | > 10 µM | > 10 µM | > 10 µM | > 10 µM | > 10 µM | > 10 µM | – | – | – | –
CCN(CC)c1oc(N(CC)CC)c(C(=O)Nc2ccccn2)c(=O)c1C(C)=O | > 100 µM | – | – | – | > 100 µM | > 100 µM | > 100 µM | – | > 100 µM | > 100 µM | – | – | – | –
COc1ccc2nc3cc(Cl)ccc3c(SCC(=O)Nc3ccccc3-c3ccccc3NC(=O)CSc3c4ccc(Cl)cc4nc4ccc(OC)cc34)c2c1 | > 100 µM | – | – | – | > 100 µM | > 100 µM | > 100 µM | > 100 µM | > 100 µM | > 100 µM | – | – | – | –
COc1ccc(-c2oc3c(OC)c(OC)cc(O)c3c(=O)c2OC)cc1 | > 100 µM | > 100 µM | > 100 µM | > 100 µM | > 100 µM | > 100 µM | – | > 100 µM | 72.5 µM | > 100 µM | – | – | – | –
CCOC(=O)c1nc2ccc(C(F)(F)F)cc2nc1Oc1ccc(C(=O)OC)cc1 | > 100 µM | > 100 µM | > 100 µM | > 100 µM | > 100 µM | – | > 100 µM | > 100 µM | > 100 µM | > 100 µM | – | – | – | –
CCOc1ccc(NC(=O)C(=O)C(C(=O)c2ccc3ccccc3c2)C2OC(=O)c3ccccc32)cc1 (stereo not drawn) | 43.4 µM | – | – | – | 13.5 µM | 86.8 µM | 38.4 µM | – | 39 µM | 37.2 µM | – | – | – | –
